{"source": "patent US20110294843A1", "about": "“ADMINISTRATION SCHEME OF POLAR OPIOID METABOLITES FOR POST-OPERATIVE PAIN MANAGEMENT” (PAION UK Limited, priority 2008, published 2011)", "key": {"[1]": {"test_system": "patients with pain treatment after surgery", "experiment": "Meta analysis of four clinical studies with M6G pain treatment after surgery", "text": "The four studies M6G001, M6G012, M6G015 and M6G022 are described in the following.\nThe following variables were included in the meta analysis:\nNausea (none, mild, moderate, severe)\nSedation (none, mild, moderate, severe)\nPain (none, mild, moderate, severe)"}, "[2]": {"conditions": "literature, cited from earlier work"}, "[3]": {"experiment": "Pharmacokinetics of M6G at single and multiple intravenous doses in healthy volunteers", "type": "in vivo, human", "conditions": "for MRT inf: read-out: MRT0-∞; for Vd: read-out: Vss; for half-life: read-out: t1/2 (converted)", "experimental": "Healthy male and female subjects were divided into two groups (A and B) with 12 in each. Group A received three single intravenous infusions of M6G over 5 mins at levels of 15, 30 and 45 mg/70 kg in random order, having taken 50 mg of naloxone orally 24 hrs beforehand. There was a seven-day wash-out period between each dose. Blood samples were taken pre-dose and at the following time-points: 3, 5, 15, 30 mins and 1, 2, 3, 4, 6, 12 and 24 hrs after the start of the infusion. Group, B received five, 15 mg/70 kg, intravenous infusions of M6G, each over five minutes, at 6-hourly intervals, having taken a 50 mg oral dose of naloxone 24 hrs before the first infusion. Blood samples were taken before each of the 5 doses, and at 3, 5, 15, 30 mins and at 1, 2, 3 and 4 hrs after the initiation of the 1st and 5th infusions and at 6 hrs after the 5th dose. Vital signs (supine blood pressure, pulse, respiratory rate and oral temperature), respiration rate, pulse oximetry and adverse events were monitored during the study. Plasma levels of M6G were measured using HPLC/ms/ms."}, "[4]": {"conditions": "both sexes, human, plasma, intravenous, 15 mg/70 kg, multiple dose, Dose 1-15 mg, Geometric Mean"}, "[5]": {"conditions": "both sexes, human, plasma, intravenous, 15 mg/70 kg, multiple dose, Dose 1-15 mg, Mean"}, "[6]": {"conditions": "both sexes, human, plasma, intravenous, 15 mg/70 kg, multiple dose, Dose 1-15 mg, Median"}, "[7]": {"conditions": "both sexes, human, plasma, intravenous, 15 mg/70 kg, multiple dose, Dose 5-15 mg, Geometric Mean"}, "[8]": {"conditions": "both sexes, human, plasma, intravenous, 15 mg/70 kg, multiple dose, Dose 5-15 mg, Mean"}, "[9]": {"conditions": "both sexes, human, plasma, intravenous, 15 mg/70 kg, multiple dose, Dose 5-15 mg, Median"}}, "note": "Like-named read-outs stand apart in the source and are kept apart here.", "data": [{"smiles": "CN1CC[C@]23c4c5ccc(O)c4O[C@H]2[C@@H](OC2OC(C(=O)O)C(O)C(O)C2O)C=CC3[C@H]1C5", "note": "(stereo partly drawn) [M6G, (5α,6α)-7,8-Didehydro-4,5-epoxy-3-hydroxy-17-methylmorphinan-β-yl-β-D-glucopyranosiduronic acid]", "values": [{"measurement": "patients with moderate to severe sedation", "setting": "[1]; human, in vivo, intravenous", "result": 63.5, "unit": "%"}, {"measurement": "patients with moderate to severe pain", "setting": "[1]; time window 0 to 6 hours", "result": 50.5, "unit": "%"}, {"measurement": "patients with moderate to severe pain", "setting": "[1]; time window 6-24 hours", "result": 19.1, "unit": "%"}, {"measurement": "patients with moderate to severe nausea", "setting": "[1]; worst assessment", "result": 23.9, "unit": "%"}, {"measurement": "patients with vomiting", "setting": "[1]; worst assessment", "result": 26.0, "unit": "%"}, {"measurement": "Log P", "setting": "[2]; Avdeef et al. 1996", "result": "−0.76"}, {"measurement": "Log P", "setting": "[2]; Gaillard et al. 1994, calculated from lipophilicity potential", "result": "−1.3"}, {"measurement": "Log P", "setting": "[2]; Wu et al. 1997", "result": "−2.95"}, {"measurement": "average peak concentrations higher following Dose 5 than Dose 1", "setting": "[3]; 15 mg 6-hourly iv infusions", "result": "approximately 25%"}, {"measurement": "dose proportionality of exposure (Cmax, AUC0-t, AUC0-∞)", "setting": "[3]; 15, 30 and 45 mg single iv infusions", "result": "directly dose-proportional"}, {"measurement": "concentration at 6 h", "setting": "[3]; both sexes, human, plasma, 15 mg/70 kg, 6 hours after each dose, 15 mg 6-hourly iv, read-out: trough levels", "result": "63.9 ± 16.5", "unit": "ng/mL"}, {"measurement": "clearance", "setting": "[3]; [4]", "result": 119, "unit": "mL/min"}, {"measurement": "AUC(0-t)", "setting": "[3]; both sexes, human, plasma, intravenous, 15 mg/70 kg, multiple dose, Dose 1-15 mg, Geometric Mean, read-out: AUC0-6", "result": 1910, "unit": "ng·h/mL"}, {"measurement": "AUC(0-inf)", "setting": "[3]; both sexes, human, plasma, intravenous, 15 mg/70 kg, multiple dose, Dose 1-15 mg, Geometric Mean, read-out: AUC0-∞", "result": 2110, "unit": "ng·h/mL"}, {"measurement": "Cmax", "setting": "[3]; both sexes, human, plasma, intravenous, 15 mg/70 kg, multiple dose, Dose 1-15 mg, Geometric Mean, read-out: Cmax", "result": 1840, "unit": "ng/mL"}, {"measurement": "MRT inf", "setting": "[3]; [4]", "result": 2.07, "unit": "h"}, {"measurement": "Vd", "setting": "[3]; [4]", "result": 14.7, "unit": "L"}, {"measurement": "half-life", "setting": "[3]; [4]", "result": 1.71, "unit": "h"}, {"measurement": "clearance", "setting": "[3]; [5]", "result": 119, "unit": "mL/min"}, {"measurement": "AUC(0-t)", "setting": "[3]; both sexes, human, plasma, intravenous, 15 mg/70 kg, multiple dose, Dose 1-15 mg, Mean, read-out: AUC0-6", "result": 1920, "unit": "ng·h/mL"}, {"measurement": "AUC(0-inf)", "setting": "[3]; both sexes, human, plasma, intravenous, 15 mg/70 kg, multiple dose, Dose 1-15 mg, Mean, read-out: AUC0-∞", "result": 2130, "unit": "ng·h/mL"}, {"measurement": "Cmax", "setting": "[3]; both sexes, human, plasma, intravenous, 15 mg/70 kg, multiple dose, Dose 1-15 mg, Mean, read-out: Cmax", "result": 1980, "unit": "ng/mL"}, {"measurement": "MRT inf", "setting": "[3]; [5]", "result": 2.1, "unit": "h"}, {"measurement": "Vd", "setting": "[3]; [5]", "result": 14.8, "unit": "L"}, {"measurement": "half-life", "setting": "[3]; [5]", "result": 1.73, "unit": "h"}, {"measurement": "clearance", "setting": "[3]; [6]", "result": 113, "unit": "mL/min"}, {"measurement": "AUC(0-t)", "setting": "[3]; both sexes, human, plasma, intravenous, 15 mg/70 kg, multiple dose, Dose 1-15 mg, Median, read-out: AUC0-6", "result": 1950, "unit": "ng·h/mL"}, {"measurement": "AUC(0-inf)", "setting": "[3]; both sexes, human, plasma, intravenous, 15 mg/70 kg, multiple dose, Dose 1-15 mg, Median, read-out: AUC0-∞", "result": 2210, "unit": "ng·h/mL"}, {"measurement": "Cmax", "setting": "[3]; both sexes, human, plasma, intravenous, 15 mg/70 kg, multiple dose, Dose 1-15 mg, Median, read-out: Cmax", "result": 2090, "unit": "ng/mL"}, {"measurement": "MRT inf", "setting": "[3]; [6]", "result": 2.17, "unit": "h"}, {"measurement": "Vd", "setting": "[3]; [6]", "result": 14.2, "unit": "L"}, {"measurement": "half-life", "setting": "[3]; [6]", "result": 1.65, "unit": "h"}, {"measurement": "AUC", "setting": "[3]; both sexes, human, plasma, intravenous, 15 mg/70 kg, multiple dose, Dose 5-15 mg, Geometric Mean, read-out: AUC24-30", "result": 2070, "unit": "ng·h/mL"}, {"measurement": "AUC", "setting": "[3]; both sexes, human, plasma, intravenous, 15 mg/70 kg, multiple dose, Dose 5-15 mg, Geometric Mean, read-out: AUC24-∞", "result": 2170, "unit": "ng·h/mL"}, {"measurement": "Cmax", "setting": "[3]; both sexes, human, plasma, intravenous, 15 mg/70 kg, multiple dose, Dose 5-15 mg, Geometric Mean, read-out: Cmax", "result": 2290, "unit": "ng/mL"}, {"measurement": "Vd", "setting": "[3]; [7]", "result": 11.9, "unit": "L"}, {"measurement": "half-life", "setting": "[3]; [7]", "result": 1.49, "unit": "h"}, {"measurement": "AUC", "setting": "[3]; both sexes, human, plasma, intravenous, 15 mg/70 kg, multiple dose, Dose 5-15 mg, Mean, read-out: AUC24-30", "result": 2080, "unit": "ng·h/mL"}, {"measurement": "AUC", "setting": "[3]; both sexes, human, plasma, intravenous, 15 mg/70 kg, multiple dose, Dose 5-15 mg, Mean, read-out: AUC24-∞", "result": 2180, "unit": "ng·h/mL"}, {"measurement": "Cmax", "setting": "[3]; both sexes, human, plasma, intravenous, 15 mg/70 kg, multiple dose, Dose 5-15 mg, Mean, read-out: Cmax", "result": 2370, "unit": "ng/mL"}, {"measurement": "Vd", "setting": "[3]; [8]", "result": 12, "unit": "L"}, {"measurement": "half-life", "setting": "[3]; [8]", "result": 1.5, "unit": "h"}, {"measurement": "AUC", "setting": "[3]; both sexes, human, plasma, intravenous, 15 mg/70 kg, multiple dose, Dose 5-15 mg, Median, read-out: AUC24-30", "result": 2090, "unit": "ng·h/mL"}, {"measurement": "AUC", "setting": "[3]; both sexes, human, plasma, intravenous, 15 mg/70 kg, multiple dose, Dose 5-15 mg, Median, read-out: AUC24-∞", "result": 2210, "unit": "ng·h/mL"}, {"measurement": "Cmax", "setting": "[3]; both sexes, human, plasma, intravenous, 15 mg/70 kg, multiple dose, Dose 5-15 mg, Median, read-out: Cmax", "result": 2370, "unit": "ng/mL"}, {"measurement": "Vd", "setting": "[3]; [9]", "result": 12.2, "unit": "L"}, {"measurement": "half-life", "setting": "[3]; [9]", "result": 1.56, "unit": "h"}, {"measurement": "AUC(0-t)", "setting": "[3]; both sexes, human, plasma, intravenous, 15 mg/70 kg, single 5 min infusion 15 mg/70 kg, read-out: AUC0-t, Geometric LS means", "result": 1760, "unit": "ng·h/mL"}, {"measurement": "AUC(0-inf)", "setting": "[3]; both sexes, human, plasma, intravenous, 15 mg/70 kg, single 5 min infusion 15 mg/70 kg, read-out: AUC0-∞, Geometric LS means", "result": 1880, "unit": "ng·h/mL"}, {"measurement": "Cmax", "setting": "[3]; both sexes, human, plasma, intravenous, 15 mg/70 kg, single 5 min infusion 15 mg/70 kg, read-out: Cmax, Geometric LS means", "result": 1740, "unit": "ng/mL"}, {"measurement": "AUC(0-t)", "setting": "[3]; both sexes, human, plasma, intravenous, 30 mg/70 kg, single 5 min infusion 30 mg/70 kg, read-out: AUC0-t, Geometric LS means", "result": 3880, "unit": "ng·h/mL"}, {"measurement": "AUC(0-inf)", "setting": "[3]; both sexes, human, plasma, intravenous, 30 mg/70 kg, single 5 min infusion 30 mg/70 kg, read-out: AUC0-∞, Geometric LS means", "result": 3970, "unit": "ng·h/mL"}, {"measurement": "Cmax", "setting": "[3]; both sexes, human, plasma, intravenous, 30 mg/70 kg, single 5 min infusion 30 mg/70 kg, read-out: Cmax, Geometric LS means", "result": 3700, "unit": "ng/mL"}, {"measurement": "AUC(0-t)", "setting": "[3]; both sexes, human, plasma, intravenous, 45 mg/70 kg, single 5 min infusion 45 mg/70 kg, read-out: AUC0-t, Geometric LS means", "result": 5750, "unit": "ng·h/mL"}, {"measurement": "AUC(0-inf)", "setting": "[3]; both sexes, human, plasma, intravenous, 45 mg/70 kg, single 5 min infusion 45 mg/70 kg, read-out: AUC0-∞, Geometric LS means", "result": 5850, "unit": "ng·h/mL"}, {"measurement": "Cmax", "setting": "[3]; both sexes, human, plasma, intravenous, 45 mg/70 kg, single 5 min infusion 45 mg/70 kg, read-out: Cmax, Geometric LS means", "result": 5720, "unit": "ng/mL"}, {"measurement": "clearance", "setting": "[3]; both sexes, human, plasma, iv, 15 mg/70 kg, single 5 min iv infusion 15 mg, Geometric Mean", "result": 131, "unit": "mL/min"}, {"measurement": "AUC(0-inf)", "setting": "[3]; both sexes, human, plasma, iv, 15 mg/70 kg, single 5 min iv infusion 15 mg, Geometric Mean, read-out: AUC0-∞", "result": 1910, "unit": "ng·h/mL"}, {"measurement": "Cmax", "setting": "[3]; both sexes, human, plasma, iv, 15 mg/70 kg, single 5 min iv infusion 15 mg, Geometric Mean, read-out: Cmax", "result": 1750, "unit": "ng/mL"}]}]}
